From patent publication US20250214977A1, “STAT6 INHIBITORS AND USES THEREOF” (Kymera Therapeutics, Inc., priority 2024, published 2025)
Several values for one entry are separate records, joined by “and”; a condition that tells them apart may be missing. Equal entries are not always repeated.

system: Phosphorylation of STAT6 in human A549 cells; test: Phosphorylated STAT6 (pSTAT6) flow cytometry assay in human A549 cells; type: cell-based; settings: read-out: STAT6 IL4 pSTAT6 assay in A549 cells: Average IC50
Text: Example 3. Phosphorylated STAT6 (pSTAT6) Flow Cytometry Assay in Human A549 Cells
Phosphorylation of STAT6 in human A549 cells was quantitatively measured using flow cytometry technology.

Row | IC50 | Compound
1 | > 100000 nM | CCOc1ccncc1-c1cc(C2=CCCN(C(=O)CCn3ccnn3)C2)c(F)c2[nH]c(C(=O)N3CCN(c4ccccc4OC)CC3)cc12 [Example I-406]
2 | < 100 nM | COc1cccc(N2CCN(C(=O)c3cc4c(-c5ccc(F)cc5OC)cc(C5=CCCN(C(=O)CCn6ccnn6)C5)c(F)c4[nH]3)CC2)n1 [Example I-589]
3 | < 100 nM | O=C(CCn1ccnn1)N1CCC=C(c2cc(-c3ccccc3F)c3cc(C(=O)N4CCN(c5ncccc5OC5CC5)CC4)[nH]c3c2F)C1 [Example I-343]
4 | < 100 nM | COc1cc(F)cnc1N1CCN(C(=O)c2cc3c(-c4cccc(C(C)(C)C#N)c4)cc(C4=CCCN(C(=O)CCn5ccnn5)C4)c(F)c3[nH]2)CC1 [Example I-682]
5 | < 100 nM | COc1ccccc1-c1cc(C2=CCCN(C(=O)CCn3ccnn3)C2)c(F)c2[nH]c(C(=O)N3CCN(c4cc(OC)c5ccnn5c4)CC3)cc12 [Example I-917]
6 | 100 to 1000 nM | CN(C)CCN(C)C(=O)c1cc2cc(C3=CCCN(C(=O)CCn4ccnn4)C3)ccc2o1 [Example I-844]
7 | < 100 nM | COc1ccccc1-c1cc(C2=CCCN(C(=O)CCn3ccnn3)C2)c(F)c2[nH]c(C(=O)N3CCN(c4ncccc4C#N)CC3)cc12 [Example I-328]
8 | < 100 nM | CCc1cc(C)ncc1-c1cc(C2=CCCN(C(=O)CC(=O)O)C2)c(F)c2[nH]c(C(=O)N3Cc4cnn(CC)c4C3)cc12 [Example I-788]
9 | < 100 nM | COc1cc(F)cnc1N1CCN(C(=O)c2cc3c(-c4ccc(C5(O)CCC5)cc4)cc(C4=CCCN(C(=O)CCn5ccnn5)C4)c(F)c3[nH]2)CC1 [Example I-1146]
10 | < 100 nM | COc1cc(N)ccc1-c1cc(C2=CCCN(C(=O)CCn3ccnn3)C2)c(F)c2[nH]c(C(=O)N3CCN(c4ncccc4OC)CC3)cc12 [Example I-571]
11 | 100 to 1000 nM | CN(C)C(=O)c1cc2cc(C3=CCCN(C(=O)C4Cc5c(N)cccc5CN4C=O)C3)ccc2o1 (centres unmarked) [Example I-372]
12 | < 100 nM | COc1cc(F)cnc1N1CCN(C(=O)c2cc3c(-c4cncc(OC(C)C)c4)cc(C4=CCCN(C(=O)CCn5ccnn5)C4)c(F)c3[nH]2)CC1 [Example I-655]
13 | 100 to 1000 nM | COc1ccccc1-c1cc(C2=CCCN(C(C)=O)C2)cc2[nH]c(C(=O)N(C)C)cc12 [Example I-1091]
14 | 10000 to 100000 nM | COc1ccccc1-c1cc(C2=CCCN(C(=O)CCn3ccnn3)C2)c(F)c2[nH]c(C(=O)N3CCN(c4ncccc4OC)CC3)cc12 [Example I-326]
15 | < 100 nM | COc1ccccc1-c1cc(C2=CCCN(C(=O)CCn3ccnn3)C2)c(F)c2[nH]c(C(=O)N3CCN(c4cn(C)c(=O)n(C)c4=O)CC3)cc12 [Example I-949]
16 | < 100 nM | CCn1ncc2c1CN(C(=O)c1cc(-c3ccccc3OC)c3c(c1)cc(C1=CCCN(C(=O)CCn4ccnn4)C1)n3CC1CC1)C2 [Example I-530]
17 | > 100000 nM | COc1ccccc1-c1cc(C2=CCCN(C(=O)CCn3ccnn3)C2)c(F)c2[nH]c(C(=O)N3Cc4cccc(F)c4C3)cc12 [Example I-982]
18 | > 100000 nM | CCn1ncc2c1CN(C(=O)c1cc3c(-c4cnc(C5CC5)cc4C)cc(C4=CCCN(C(=O)CCn5ccnn5)C4)c(F)c3[nH]1)C2 [Example I-766]
19 | < 100 nM | COc1cc(F)cnc1N1CCN(C(=O)c2cc3c(-c4cccc(-n5nc(C)cc5C)c4)cc(C4=CCCN(C(=O)CCn5ccnn5)C4)c(F)c3[nH]2)CC1 [Example I-620]
20 | < 100 nM | COc1ccccc1-c1cc(C2=CCCN(C(=O)CCn3ccnn3)C2)c(F)c2[nH]c(C(=O)N3CCN(Cc4noc(C)n4)CC3)cc12 [Example I-1201]

The next lines start with the compound.

Row | Compound | IC50
21 | CCOC(=O)C(=O)N1CCC=C(c2cc3cc(C(=O)N4Cc5cnn(CC)c5C4)cc(-c4ccc(CC)nc4C)c3n2CC2CC2)C1 [Example I-799] | > 100000 nM
22 | COc1cc(F)cnc1N1CCN(C(=O)c2cc3c(-c4cccc(C)c4)cc(C4=CCCN(C(=O)CCn5ccnn5)C4)c(F)c3[nH]2)CC1 [Example I-673] | < 100 nM
23 | COc1cccnc1N1CCN(C(=O)c2cc3c(-c4cccc(F)c4OC)cc(C4=CCCN(C(=O)CCn5ccnn5)C4)c(F)c3[nH]2)C(C)C1 (centres unmarked) [Example I-973] | 100 to 1000 nM
24 | CC(=O)N1CCC=C(c2cc(-c3ccc(C)nc3)c3cc(C(=O)N(C)C)[nH]c3c2F)C1 [Example I-885] | 100 to 1000 nM
25 | COc1ccccc1-c1cc(C2=CCCN(C(=O)CCn3ccnn3)C2)c(F)c2[nH]c(C(=O)N3Cc4ccc(C#N)cc4C3)cc12 [Example I-975] | < 100 nM
26 | COc1cc(C)c(N2CCN(C(=O)c3cc4c(-c5ccccc5OC)cc(C5=CCCN(C(=O)CCn6ccnn6)C5)c(F)c4[nH]3)CC2)c(C)n1 [Example I-958] | 100 to 1000 nM
27 | CCOCc1cc(F)ccc1-c1cc(C2=CCCN(C(=O)CCn3ccnn3)C2)c(F)c2[nH]c(C(=O)N3CCN(c4ncc(F)cc4OC)CC3)cc12 [Example I-1125] | < 100 nM
28 | CCc1cc(C)ncc1-c1cc(C2=CCCN(C(=O)C(C)C(=O)O)C2)c(F)c2[nH]c(C(=O)N3CCN(c4ncc(F)cc4OC)CC3)cc12 (centres unmarked) [Example I-808, 3-(3-(4-(4-ethyl-6-methylpyridin-3-yl)-7-fluoro-2-(4-(5-fluoro-3-methoxypyridin-2-yl)piperazine-1-carbonyl)-1H-indol-6-yl)-5,6-dihydropyridin-1(2H)-yl)-2-methyl-3-oxopropanoic acid] | 100 to 1000 nM and < 100 nM
29 | COc1cccc(N2CCN(C(=O)c3cc4c(-c5ccc(N(C)C)cc5OC)cc(C5=CCCN(C(=O)CCn6ccnn6)C5)c(F)c4[nH]3)CC2)n1 [Example I-1109] | < 100 nM
30 | CCc1ccncc1-c1cc(C2=CCCN(C(C)=O)C2)c(F)c2[nH]c(C(=O)N3CCN(c4ncccc4OC)CC3)cc12 [Example I-619] | 100 to 1000 nM
31 | COc1ccccc1-c1cc(C2=CCCN(C(=O)CCn3ccnn3)C2)c(F)c2[nH]c(C(=O)N3CCN(Cc4ccc(Br)cc4)CC3)cc12 [Example I-852] | 100 to 1000 nM
32 | COC(=O)C1CN(C(=O)c2cc3c(-c4ccccc4OC)cc(C4=CCCN(C(=O)CCn5ccnn5)C4)c(F)c3[nH]2)CC1C (centres unmarked) [Example I-998] | < 100 nM
33 | CNc1ccc(-c2cc(C3=CCCN(C(=O)C4Cc5c(N)cccc5CN4C=O)C3)cc3cc(C(=O)N(C)C)oc23)c(OC)c1 (centres unmarked) [Example I-1063] | < 100 nM
34 | COc1cc(F)cnc1N1CCN(C(=O)c2cc3c(-c4ccccc4C4CC4)cc(C4=CCCN(C(=O)CCn5ccnn5)C4)c(F)c3[nH]2)CC1 [Example I-645] | < 100 nM
35 | COc1ccccc1-c1cc(C2=CCCN(C(=O)CCn3ccnn3)C2)c(F)c2[nH]c(C(=O)Nc3cccn(C)c3=O)cc12 [Example I-1027] | 100 to 1000 nM
36 | CN(C)C(=O)c1cc2ccc(C3=CCCN(C(=O)C4Cc5ccccc5CN4C=O)C3)cc2[nH]1 (centres unmarked) [Example I-822] | 100 to 1000 nM
37 | COc1ccccc1-c1cc(C2CCCN(C(=O)CCn3ccnn3)C2)c(F)c2[nH]c(C(=O)N3CCN(c4ncccc4OC)CC3)cc12 (centres unmarked) [Example I-348] | < 100 nM
38 | COc1ccccc1-c1cc(C2=CCCN(C(=O)CCn3ccnn3)C2)c(F)c2[nH]c(C(=O)N3CC=C(c4ncccc4OC)CC3)cc12 [Example I-425] | < 100 nM

Row | Compound | IC50
39 | COc1ccccc1-c1cc(C2=CCCN(C(=O)CCn3ccnn3)C2)c(F)c2[nH]c(C(=O)N3CCN(c4ccccc4Cl)CC3)cc12 [Example I-423] | < 100 nM
40 | COc1ccccc1-c1cc(C2=CCCN(C(=O)CCn3ccnn3)C2)c(F)c2[nH]c(C(=O)N3CCC(OC4CCC4)CC3)cc12 [Example I-984] | < 100 nM
41 | COc1cccnc1N1CCN(C(=O)c2cc3c(-n4ccc5ccccc54)cc(C4=CCCN(C(=O)CCn5ccnn5)C4)c(F)c3[nH]2)CC1 [Example I-578] | < 100 nM
42 | CCCN(C)C(=O)c1cc2cc(C3=CCCN(C(=O)CCn4ccnn4)C3)ccc2o1 [Example I-817] | 100 to 1000 nM
43 | COc1cc(F)cnc1N1CCN(C(=O)c2cc3c(C4=CCC(C#N)CC4)cc(C4=CCCN(C(=O)CCn5ccnn5)C4)c(F)c3[nH]2)CC1 (centres unmarked) [Example I-1141] | < 100 nM
44 | COc1cccc(F)c1-c1cc(C2=CCCN(C(C)=O)C2)c(F)c2cc(C(=O)N(C)C)oc12 [Example I-1105] | 100 to 1000 nM
45 | CCc1cc(C)ncc1-c1cc(C2=CCCN(C(=O)CCn3ccnn3)C2)c(F)c2[nH]c(C(=O)N3CCN(C4CC4)CC3)cc12 [Example I-536] | < 100 nM
46 | CN(C)C(=O)c1cc2cc(C3=CCCN(C(=O)CCn4ccnn4)C3)cc(-c3ccc4[nH]ccc4c3)c2o1 [Example I-1071] | < 100 nM
47 | CCOC(=O)CC(=O)N1CCC=C(c2cc3cc(C(=O)N4CCN(c5ncc(F)cc5OC)CC4)cc(-c4ccc(C)nc4CC)c3n2CC2CC2)C1 [Example I-1173] | 100 to 1000 nM
48 | COc1ccccc1-c1cc(C2=CCCN(C(=O)CCn3ccnn3)C2)c(F)c2[nH]c(C(=O)N3CCN(c4ccsc4C#N)CC3)cc12 [Example I-776] | < 100 nM
49 | CCc1nc(C)ccc1-c1cc(C(=O)N2CCN(c3ncc(F)cc3OC)CC2)cc2cc(C3=CCCN(C(=O)CCn4ccnn4)C3)n(CC3CC3)c12 [Example I-517] | < 100 nM
50 | COc1cc(F)cnc1N1CCN(C(=O)c2cc3c(-c4ccc(OCC5CC5)nc4)cc(C4=CCCN(C(=O)CCn5ccnn5)C4)c(F)c3[nH]2)CC1 [Example I-1164] | 100 to 1000 nM
51 | COc1cc(F)cnc1N1CCN(C(=O)c2cc3c(-c4cc(C)nc5ccccc45)cc(C4=CCCN(C(=O)CCn5ccnn5)C4)c(F)c3[nH]2)CC1 [Example I-630] | < 100 nM
52 | COc1cc(F)cnc1N1CCN(C(=O)c2cc3c(-c4ccc(C(O)C(F)(F)F)cc4)cc(C4=CCCN(C(=O)CCn5ccnn5)C4)c(F)c3[nH]2)CC1 (centres unmarked) [Example I-1145] | < 100 nM
53 | CCc1nc(C)ccc1-c1cc(C(=O)N2CCN(c3ncc(F)cc3OC)CC2)cc2cc(C3=CCCN(C(=O)CC(=O)O)C3)n(CC)c12 [Example I-794] | < 100 nM
54 | COc1cc(F)cnc1N1CCN(C(=O)c2cc3c(/C=C/CCl)cc(C4=CCCN(C(=O)CCn5ccnn5)C4)c(F)c3[nH]2)CC1 [Example I-1162] | 1000 to 10000 nM
55 | CCc1nc(C)ccc1-c1cc(C(=O)N2CCN(c3ncc(F)cc3OC)CC2)cc2cc(C3=CCCN(C(=O)CCn4ccnn4)C3)n(CC(C)C)c12 [Example I-524] | < 100 nM
56 | COc1ccccc1-c1cc(C2=CCCN(C(=O)CCn3ccnn3)C2)c(F)c2[nH]c(C(=O)N3CCN(c4ncnc5[nH]cnc45)CC3)cc12 [Example I-946] | < 100 nM
